This note sets out measurements from paper PMC4104029, “Mechanism of Action of Compound-13: An α1-Selective Small Molecule Activator of AMPK” (Chemistry & Biology, 2014).

One assay has as its target T1, AMPK α1β1γ1 (Homo sapiens, UniProt P54619+Q13131).
T1 construct: purchased Sigma and Signalchem; host or cells: Spodoptera frugiperda (Sf9)
As to the kind of experiment: AMPK phosphotransferase assay, allosteric activation, cell-free. Particulars: 1 μM C2, ADP 0–200 μM. Format: biochemical. The method, then: Figure 1 The AMP Analog C2 Is a Potent AMPK Activator in Cell-Free Assays with Selectivity for α1 Complexes (A) The structure of the endogenous activator of AMPK, AMP; the AMP mimetic, C2; and the classical AMP mimetic, ZMP, and other AMPK activators are shown. […] (B) Recombinant AMPK complexes (α1β1γ1, α2β1γ1, α1β1γ2, and α1β2γ1) expressed in Spodoptera frugiperda were assayed for allosteric activation by AMP or C2. Results are expressed as the increase in activity relative to controls without ligand and represent the mean ± SD for three independent experiments. (C) Enzymes allosterically regulated by AMP (PFK1 and FBP1) or using AMP as a substrate (AMPD1, AK, and 5′-NT) were assayed in the presence of C2 (≤ 100 μM). Enzymes allosterically regulated by AMP were screened for both agonism and antagonism, the latter in the presence of AMP at ≈ EC50. All enzymes were unaffected by [C2] ≤ 100 μM. Representative data are shown for the effects of AMP and C2 on PFK1 and FBP1 activity. Results are representative of three independent experiments conducted on one enzyme preparation. TEXT PRINTED IN THE PICTURE: (B) C2: α1β1γ1: EC50: 0.011 ± 0.001 μM; α2β1γ1: EC50: 0.015 ± 0.003 μM; α1β1γ2: EC50: 0.024 ± 0.004 μM; α1β2γ1: EC50: 0.015 ± 0.002 μM | (B) AMP: α1β1γ1: EC50: 3.7 ± 0.6 μM; α2β1γ1: EC50: 3.2 ± 0.2 μM; α1β1γ2: EC50: 2.5 ± 0.3 μM; α1β2γ1: EC50: 3.2 ± 0.4 μM | (C) C2: PFK1: EC50: ND; FBP1: IC50: ND | (C) AMP: PFK1: EC50: 33 ± 3 μM; FBP1: IC50: 5 ± 0.2 μM […]
We initially compared the ability of C2 and AMP to activate various recombinant human AMPK complexes, expressed in insect cells, in cell-free assays (Figure 1B). As reported previously using rat liver complexes separated by immunoprecipitation ([Salt et al., 1998]), the allosteric activation of α1 complexes by AMP was less than that of α2 complexes. […] Similar results were obtained with other permutations of β and γ subunits in complex with α2 (data not shown). We also tested the effects of C2 and AMP on recombinant human α1β1γ1 and α2β1γ1 complexes expressed in E. coli and obtained similar results (data not shown).
AMPK phosphotransferase activity was assayed in reactions (50 μl) containing 50 mM HEPES, pH 7.4, 10 mM MgCl2, 0.1 mM EGTA, 1 mM DTT, 0.01% BRIJ-35, 100 μM [γ-^32P]ATP (∼250 CPM⋅pmol^−1) and 200 μM AMARA (AMARAASAAALARRR). Reactions were started by the addition of AMPK (5 mU), incubated for 20 min at 30°C and quenched by spotting onto P81 and immersion in 75 mM H3PO4. Washed filters were dried and [^32P] incorporation determined by Cherenkov counting. AMPK activity in cell extracts was determined by immunoprecipitation with AMPKα1 or AMPKα2 antibodies from 50 μg material, as previously described ([Hunter et al., 2011]). […]

For assay [1], the system named is LKB1−/− mouse embryonic fibroblasts. Briefly: AMPK and ACC phosphorylation in LKB1-null fibroblasts. Format: cell-based. Particulars: 1 hr; AICAR 2 mM. The method, then: AICAR (0.5 mM) was included as a positive control. Cell lysates were analyzed using western blotting with the indicated antibodies. (B) AMPKα1 or AMPKα2 complexes were immunoprecipitated from hepatocyte extracts prepared as described in (A) and assayed for kinase activity using 0.2 mM AMARA and 0.1 mM ATP. Results are expressed as the mean Pi incorporated in picomoles per minute-milligram ± SD. (C) Hepatocytes were stimulated with 30 μM C13 for the indicated times prior to harvesting, with AICAR (0.5 mM, 1 hr) as positive control. Lysates were analyzed using western blotting with the indicated antibodies. (D) Mouse hepatocytes were treated with the indicated compounds for 1 hr, and adenine nucleotide ratios were determined using capillary electrophoresis of perchloric acid extracts. […] Lysates were analyzed using western blotting with the indicated antibodies. (F) Wild-type (LKB1^+/+) or LKB1-null (LKB1^−/−) mouse embryonic fibroblasts were incubated with the indicated concentrations of C13 for 1 hr. AICAR (2 mM) was included as a positive control. Lysates were analyzed using western blotting with the indicated antibodies.

The subject of assay [2] is β1-KO hepatocytes. As to the kind of experiment: Lipogenesis, [3H]acetate incorporation into total lipids. Format: cell-based, mouse. Particulars: 100 μM, 4 hr. How it is done:
(§1) Figure 7 C13 Activates Both β1 and β2 Complexes in Mouse Hepatocytes (A) Hepatocytes from WT, AMPKβ1^−/−, and AMPKβ2^−/− mice were incubated with the indicated concentrations of C13 for 1 hr. A769662 (100 μM) was included as a positive control. Lysates were analyzed using western blotting with the indicated antibodies. (B) Mouse hepatocytes from the indicated genotypes were treated with the indicated concentrations of C13 and labeled with [^3H]acetate for 4 hr. Lipogenesis was estimated from the incorporation of acetate into total lipids. Results are expressed as the mean acetate incorporated in micromoles per gram-hour ± SD.
Lipid synthesis was determined by labeling adherent cultures of primary hepatocytes with [1-^14C]acetate. After overnight culture, hepatocytes (5 × 10^5) were washed with warm PBS and allowed to rest for 3 hr in fresh M199. Cells were treated with vehicle (0.1% DMSO) or the indicated compounds and labeled with 1 mCi⋅mmol^−1 [1-^14C]acetate for 3 hr. […] Lipogenesis in hepatocytes from AMPKβ1/β2-KO mice was determined in media containing [^3H]acetate (0.2 mCi⋅mmol^−1). After 4 hr labeling, total lipids were extracted using the method of [Bligh and Dyer (1959)], and incorporated [^3H] was determined by scintillation counting. The results are expressed as micromoles acetate incorporated per gram-hour.

The test system of a further assay is WT and β2-KO hepatocytes. As to the kind of experiment: AMPK signaling, western blotting. Format: cell-based, mouse. Particulars: 1 hr; A769662 100 μM. The method, then:
as §1
Background: Immunoblotting shows a protein as a band on a membrane.

For assay [3], the system named is β1-KO hepatocytes. As to the kind of experiment: AMPK signaling, western blotting. Format: cell-based, mouse. The conditions noted are these: 1 hr; A769662 100 μM. How it is done:
as §1

In a further assay the test system is mouse hepatocytes. Briefly: Adenine nucleotide ratios by capillary electrophoresis. Format: cell-based. The conditions noted are these: 1 hr; C13 up to 100 μM. How it is done:
(§2) Figure 4 The C2 Prodrug, C13, Potently Activates AMPK in Mouse Primary Hepatocytes (A) Isolated mouse hepatocytes were incubated with vehicle or the indicated concentrations of C13 for 1 hr. AICAR (0.5 mM) was included as a positive control. Cell lysates were analyzed using western blotting with the indicated antibodies. (B) AMPKα1 or AMPKα2 complexes were immunoprecipitated from hepatocyte extracts prepared as described in (A) and assayed for kinase activity using 0.2 mM AMARA and 0.1 mM ATP. Results are expressed as the mean Pi incorporated in picomoles per minute-milligram ± SD. (C) Hepatocytes were stimulated with 30 μM C13 for the indicated times prior to harvesting, with AICAR (0.5 mM, 1 hr) as positive control. Lysates were analyzed using western blotting with the indicated antibodies. (D) Mouse hepatocytes were treated with the indicated compounds for 1 hr, and adenine nucleotide ratios were determined using capillary electrophoresis of perchloric acid extracts. (E) Mouse hepatocytes were preincubated with 30 μM STO-609 for 30 min prior to stimulation with 30 μM C13 for 1 hr or with 1 μM ionomycin for 30 min. Lysates were analyzed using western blotting with the indicated antibodies. (F) Wild-type (LKB1^+/+) or LKB1-null (LKB1^−/−) mouse embryonic fibroblasts were incubated with the indicated concentrations of C13 for 1 hr. AICAR (2 mM) was included as a positive control. Lysates were analyzed using western blotting with the indicated antibodies. Results are representative of three independent experiments. […]
Isolation of primary hepatocytes. Hepatocytes were isolated from fasted mice by collagenase digestion (Berry and Friend, 1969). Cells were seeded in M199 containing 100 U/ml penicillin G, 100 µg/ml streptomycin, 0.1 % (w/v) BSA, 10 % (v/v) FBS, 10 nM insulin, 200 nM triiodothyronine and 100 nM dexamethasone. […]
Nucleotide measurements. […] Nucleotides were separated and quantified by capillary electrophoresis using a Beckman P/ACE instrument as previously described (Hawley, et al., 2010).

Assay [4] concerns AMPK signaling in mouse primary hepatocytes. Briefly: AMPK signaling in primary hepatocytes, western blotting. Format: cell-based. The conditions noted are these: 30 μM STO-609 for 30 min, 1 μM ionomycin. The method, then:
as §2
Isolation of primary hepatocytes. Hepatocytes were isolated from fasted mice by collagenase digestion (Berry and Friend, 1969). Cells were seeded in M199 containing 100 U/ml penicillin G, 100 µg/ml streptomycin, 0.1 % (w/v) BSA, 10 % (v/v) FBS, 10 nM insulin, 200 nM triiodothyronine and 100 nM dexamethasone. Post attachment (3-4 h), cells were cultured overnight in M199 supplemented with antibiotics and 100 nM dexamethasone and used for experiments the following morning.
Western blotting. Cells were stimulated as indicated, rinsed with ice-cold PBS and lysed with 50 mM tris pH 7.5, 1 mM EDTA, 1 mM EGTA, 0.27 M sucrose, 1 % (w/v) Triton X-100, 20 mM glycerol-2-phosphate, 50 mM NaF, 5 mM Na4P2O7, 1 mM Na3VO4, 1 mM DTT, 0.5 mM PMSF, 1 mM benzamidine and 1 µM microcystin-LR. Lysates were clarified at 3000 g for 5 min at 4 °C and normalised using Bradford reagent and BSA as standard. Lysates (20 µg) were denatured in Laemlli buffer, separated on 7.5 % tris-glycine gels and transferred to PVDF in Towbin buffer. Membranes were blocked in 5 % (w/v) milk for 1 h at RT and incubated overnight in the indicated primary antibodies at 4 °C. Membranes were developed using HRP-conjugated antibodies and ECL reagent.
Nucleotide measurements. Cultured hepatocytes were incubated with the indicated compounds and washed with ice-cold 0.9 % (w/v) saline before extraction in 5 % perchloric acid. Precipitated material was removed by centrifugation (13,000 RPM, 3 min) and supernatant neutralised with 1:1 trioctylamine:Freon-113 (Khym, 1975). Nucleotides were separated and quantified by capillary electrophoresis using a Beckman P/ACE instrument as previously described (Hawley, et al., 2010).

T1 sequence (Q13131 whole entry): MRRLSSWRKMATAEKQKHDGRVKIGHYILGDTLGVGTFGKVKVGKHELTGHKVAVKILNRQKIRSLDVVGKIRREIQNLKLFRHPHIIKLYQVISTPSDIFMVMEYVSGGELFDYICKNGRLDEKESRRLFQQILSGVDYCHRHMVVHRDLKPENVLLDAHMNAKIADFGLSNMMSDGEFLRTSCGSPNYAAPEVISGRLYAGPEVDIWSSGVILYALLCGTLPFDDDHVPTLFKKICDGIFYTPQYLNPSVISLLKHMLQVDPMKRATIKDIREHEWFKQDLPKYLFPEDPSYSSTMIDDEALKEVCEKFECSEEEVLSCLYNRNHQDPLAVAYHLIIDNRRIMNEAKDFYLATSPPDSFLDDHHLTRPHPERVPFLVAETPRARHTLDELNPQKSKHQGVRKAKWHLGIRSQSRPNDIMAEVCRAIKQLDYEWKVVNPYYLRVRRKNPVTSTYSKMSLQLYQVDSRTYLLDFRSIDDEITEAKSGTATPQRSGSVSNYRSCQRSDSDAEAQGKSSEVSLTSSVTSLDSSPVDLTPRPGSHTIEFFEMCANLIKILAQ
T1 sequence (Q9Y478 whole entry partner): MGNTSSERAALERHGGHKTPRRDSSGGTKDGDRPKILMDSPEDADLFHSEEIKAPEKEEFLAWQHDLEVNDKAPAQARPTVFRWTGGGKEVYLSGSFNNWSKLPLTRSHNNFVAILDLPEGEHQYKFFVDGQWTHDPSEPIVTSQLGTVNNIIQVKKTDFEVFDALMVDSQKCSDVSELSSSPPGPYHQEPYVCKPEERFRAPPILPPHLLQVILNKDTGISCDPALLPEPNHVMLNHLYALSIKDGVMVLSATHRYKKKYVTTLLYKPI
T1 sequence (P54619 whole entry): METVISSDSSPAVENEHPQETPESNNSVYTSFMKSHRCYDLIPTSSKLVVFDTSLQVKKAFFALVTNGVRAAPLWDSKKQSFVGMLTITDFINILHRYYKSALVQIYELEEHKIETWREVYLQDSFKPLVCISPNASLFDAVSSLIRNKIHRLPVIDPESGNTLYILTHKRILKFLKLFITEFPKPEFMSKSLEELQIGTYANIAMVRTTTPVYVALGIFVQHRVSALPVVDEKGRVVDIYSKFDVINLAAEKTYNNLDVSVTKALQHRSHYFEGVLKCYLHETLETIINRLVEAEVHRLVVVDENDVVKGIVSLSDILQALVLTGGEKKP

In the case of `Nc1ncnc2c1ncn2[C@@H]1O[C@H](COP(=O)(O)OP(=O)(O)O)[C@@H](O)[C@H]1O` [ADP, reference compound], the “effect on activation by C2” value on AMPK α1β1γ1 is listed as “antagonized”.

In the case of `NC(=O)c1ncn([C@@H]2O[C@H](CO)[C@@H](O)[C@H]2O)c1N` [AICAR, 5-aminoimidazole-4-carboxamide riboside, reference compound], the “compound-induced phosphorylation of AMPK and ACC” value in assay [1] was “abolished”.

`N#Cc1c(O)c2c(-c3ccc(-c4ccccc4O)cc3)csc2[nH]c1=O` [Compound A769662, reference compound]: the suppression of lipogenesis result with β1-KO hepatocytes [2] was “failed to suppress lipogenesis”. Moreover, the “phosphorylation of Thr172 and ACC, as well as Raptor” value in the assay with WT and β2-KO hepatocytes was “robustly stimulated”. Further, in the assay with β1-KO hepatocytes [3], the “stimulation of AMPK (Thr172 phosphorylation)” value is “failed to stimulate”.

For the compound `OO` [Compound H2O2], the “ADP:ATP and AMP:ATP ratios” value with mouse hepatocytes is “increased”.

On to `O=[N+]([O-])c1ccc(O)c([N+](=O)[O-])c1` [DNP, 2,4-dinitrophenol], for which the “ADP:ATP and AMP:ATP ratios” value with mouse hepatocytes is “increased”.

In the case of `O=C(O)c1ccc2c3c1cccc3c(=O)n1c3ccccc3nc21` [STO-609, reference compound], the “phosphorylation of AMPK and ACC by ionomycin after prior incubation” value in assay [4] is recorded as “almost completely abolished”.
